Data published in ChEMBL document CHEMBL3044736, “Synthesis, characterization, solvatochromic properties, and antimicrobial evaluation of 5-acetyl-2-thioxo-dihydro-pyrimidine-4,6-dione-based chalcones” (2013).
≈ marks a conversion by molar mass, not a printed value.

How the values were obtained:
Format in all cases: functional
[1] = system: Penicillium; experiment: Antimicrobial activity against Penicillium wild strain assessed as diameter of growth inhibition zone at 250 ug/ml after 48-96 hr by agar cup diffusion method; conditions: read-out: DIZ
[2] = system: Penicillium; experiment: Antimicrobial activity against Penicillium wild strain assessed as diameter of growth inhibition zone at 100 ug/ml after 48-96 hr by agar cup diffusion method; conditions: read-out: DIZ
[3] = system: Trichophyton rubrum; experiment: Antimicrobial activity against Trichophyton rubrum MTCC 296 assessed as diameter of growth inhibition zone at 100 ug/ml after 48-96 hr by agar cup diffusion method; conditions: read-out: DIZ
[4] = system: Aspergillus clavatus; experiment: Antimicrobial activity against Aspergillus clavatus MTCC 1323 assessed as diameter of growth inhibition zone at 100 ug/ml after 48-96 hr by agar cup diffusion method; conditions: read-out: DIZ
[5] = system: Candida albicans; experiment: Antimicrobial activity against Candida albicans MTCC 227 assessed as diameter of growth inhibition zone at 100 ug/ml after 48-96 hr by agar cup diffusion method; conditions: read-out: DIZ
[6] = system: Penicillium; experiment: Antimicrobial activity against Penicillium wild strain assessed as diameter of growth inhibition zone at 50 ug/ml after 48-96 hr by agar cup diffusion method; conditions: read-out: DIZ
[7] = system: Trichophyton rubrum; experiment: Antimicrobial activity against Trichophyton rubrum MTCC 296 assessed as diameter of growth inhibition zone at 50 ug/ml after 48-96 hr by agar cup diffusion method; conditions: read-out: DIZ
[8] = system: Aspergillus clavatus; experiment: Antimicrobial activity against Aspergillus clavatus MTCC 1323 assessed as diameter of growth inhibition zone at 50 ug/ml after 48-96 hr by agar cup diffusion method; conditions: read-out: DIZ
[9] = system: Candida albicans; experiment: Antimicrobial activity against Candida albicans MTCC 227 assessed as diameter of growth inhibition zone at 50 ug/ml after 48-96 hr by agar cup diffusion method; conditions: read-out: DIZ
[10] = system: Penicillium; experiment: Antimicrobial activity against Penicillium wild strain assessed as diameter of growth inhibition zone at 25 ug/ml after 48-96 hr by agar cup diffusion method; conditions: read-out: DIZ
[11] = system: Trichophyton rubrum; experiment: Antimicrobial activity against Trichophyton rubrum MTCC 296 assessed as diameter of growth inhibition zone at 25 ug/ml after 48-96 hr by agar cup diffusion method; conditions: read-out: DIZ
[12] = system: Aspergillus clavatus; experiment: Antimicrobial activity against Aspergillus clavatus MTCC 1323 assessed as diameter of growth inhibition zone at 25 ug/ml after 48-96 hr by agar cup diffusion method; conditions: read-out: DIZ
[13] = system: Candida albicans; experiment: Antimicrobial activity against Candida albicans MTCC 227 assessed as diameter of growth inhibition zone at 25 ug/ml after 48-96 hr by agar cup diffusion method; conditions: read-out: DIZ
[14] = system: Penicillium; experiment: Antimicrobial activity against Penicillium wild strain by agar cup diffusion method
[15] = system: Aspergillus clavatus; experiment: Antimicrobial activity against Aspergillus clavatus MTCC 1323 by agar cup diffusion method
[16] = system: Pseudomonas aeruginosa; experiment: Antimicrobial activity against Pseudomonas aeruginosa MTCC 1688 assessed as diameter of growth inhibition zone at 25 ug/ml after 18-24 hr by agar cup diffusion method; conditions: read-out: DIZ
[17] = system: Escherichia coli; experiment: Antimicrobial activity against Escherichia coli MTCC 443 assessed as diameter of growth inhibition zone at 25 ug/ml after 18-24 hr by agar cup diffusion method; conditions: read-out: DIZ
[18] = system: Staphylococcus aureus; experiment: Antimicrobial activity against Staphylococcus aureus MTCC 96 assessed as diameter of growth inhibition zone at 25 ug/ml after 18-24 hr by agar cup diffusion method; conditions: read-out: DIZ
[19] = system: Streptococcus pyogenes; experiment: Antimicrobial activity against Streptococcus pyogenes MTCC 442 assessed as diameter of growth inhibition zone at 25 ug/ml after 18-24 hr by agar cup diffusion method; conditions: read-out: DIZ
[20] = system: Klebsiella pneumoniae; experiment: Antimicrobial activity against Klebsiella pneumoniae MTCC 109 by agar cup diffusion method
[21] = system: Escherichia coli; experiment: Antimicrobial activity against Escherichia coli MTCC 443 by agar cup diffusion method
[22] = system: Pseudomonas aeruginosa; experiment: Antimicrobial activity against Pseudomonas aeruginosa MTCC 1688 by agar cup diffusion method
[23] = system: Staphylococcus aureus; experiment: Antimicrobial activity against Staphylococcus aureus MTCC 96 by agar cup diffusion method
[24] = system: Streptococcus pyogenes; experiment: Antimicrobial activity against Streptococcus pyogenes MTCC 442 by agar cup diffusion method
[25] = system: Trichophyton rubrum; experiment: Antimicrobial activity against Trichophyton rubrum MTCC 296 by agar cup diffusion method
[26] = system: Candida albicans; experiment: Antimicrobial activity against Candida albicans MTCC 227 by agar cup diffusion method
[27] = system: Klebsiella pneumoniae; experiment: Antimicrobial activity against Klebsiella pneumoniae MTCC 109 assessed as diameter of growth inhibition zone at 250 ug/ml after 18-24 hr by agar cup diffusion method; conditions: read-out: DIZ
[28] = system: Pseudomonas aeruginosa; experiment: Antimicrobial activity against Pseudomonas aeruginosa MTCC 1688 assessed as diameter of growth inhibition zone at 250 ug/ml after 18-24 hr by agar cup diffusion method; conditions: read-out: DIZ
[29] = system: Escherichia coli; experiment: Antimicrobial activity against Escherichia coli MTCC 443 assessed as diameter of growth inhibition zone at 250 ug/ml after 18-24 hr by agar cup diffusion method; conditions: read-out: DIZ
[30] = system: Staphylococcus aureus; experiment: Antimicrobial activity against Staphylococcus aureus MTCC 96 assessed as diameter of growth inhibition zone at 250 ug/ml after 18-24 hr by agar cup diffusion method; conditions: read-out: DIZ
[31] = system: Streptococcus pyogenes; experiment: Antimicrobial activity against Streptococcus pyogenes MTCC 442 assessed as diameter of growth inhibition zone at 250 ug/ml after 18-24 hr by agar cup diffusion method; conditions: read-out: DIZ
[32] = system: Klebsiella pneumoniae; experiment: Antimicrobial activity against Klebsiella pneumoniae MTCC 109 assessed as diameter of growth inhibition zone at 100 ug/ml after 18-24 hr by agar cup diffusion method; conditions: read-out: DIZ
[33] = system: Pseudomonas aeruginosa; experiment: Antimicrobial activity against Pseudomonas aeruginosa MTCC 1688 assessed as diameter of growth inhibition zone at 100 ug/ml after 18-24 hr by agar cup diffusion method; conditions: read-out: DIZ
[34] = system: Escherichia coli; experiment: Antimicrobial activity against Escherichia coli MTCC 443 assessed as diameter of growth inhibition zone at 100 ug/ml after 18-24 hr by agar cup diffusion method; conditions: read-out: DIZ
[35] = system: Staphylococcus aureus; experiment: Antimicrobial activity against Staphylococcus aureus MTCC 96 assessed as diameter of growth inhibition zone at 100 ug/ml after 18-24 hr by agar cup diffusion method; conditions: read-out: DIZ
[36] = system: Streptococcus pyogenes; experiment: Antimicrobial activity against Streptococcus pyogenes MTCC 442 assessed as diameter of growth inhibition zone at 100 ug/ml after 18-24 hr by agar cup diffusion method; conditions: read-out: DIZ
[37] = system: Klebsiella pneumoniae; experiment: Antimicrobial activity against Klebsiella pneumoniae MTCC 109 assessed as diameter of growth inhibition zone at 50 ug/ml after 18-24 hr by agar cup diffusion method; conditions: read-out: DIZ
[38] = system: Pseudomonas aeruginosa; experiment: Antimicrobial activity against Pseudomonas aeruginosa MTCC 1688 assessed as diameter of growth inhibition zone at 50 ug/ml after 18-24 hr by agar cup diffusion method; conditions: read-out: DIZ
[39] = system: Escherichia coli; experiment: Antimicrobial activity against Escherichia coli MTCC 443 assessed as diameter of growth inhibition zone at 50 ug/ml after 18-24 hr by agar cup diffusion method; conditions: read-out: DIZ
[40] = system: Staphylococcus aureus; experiment: Antimicrobial activity against Staphylococcus aureus MTCC 96 assessed as diameter of growth inhibition zone at 50 ug/ml after 18-24 hr by agar cup diffusion method; conditions: read-out: DIZ
[41] = system: Streptococcus pyogenes; experiment: Antimicrobial activity against Streptococcus pyogenes MTCC 442 assessed as diameter of growth inhibition zone at 50 ug/ml after 18-24 hr by agar cup diffusion method; conditions: read-out: DIZ
[42] = system: Klebsiella pneumoniae; experiment: Antimicrobial activity against Klebsiella pneumoniae MTCC 109 assessed as diameter of growth inhibition zone at 25 ug/ml after 18-24 hr by agar cup diffusion method; conditions: read-out: DIZ
[43] = system: Trichophyton rubrum; experiment: Antimicrobial activity against Trichophyton rubrum MTCC 296 assessed as diameter of growth inhibition zone at 250 ug/ml after 48-96 hr by agar cup diffusion method; conditions: read-out: DIZ
[44] = system: Aspergillus clavatus; experiment: Antimicrobial activity against Aspergillus clavatus MTCC 1323 assessed as diameter of growth inhibition zone at 250 ug/ml after 48-96 hr by agar cup diffusion method; conditions: read-out: DIZ
[45] = system: Candida albicans; experiment: Antimicrobial activity against Candida albicans MTCC 227 assessed as diameter of growth inhibition zone at 250 ug/ml after 48-96 hr by agar cup diffusion method; conditions: read-out: DIZ

O=C(/C=C/c1ccccc1)C1C(=O)NC(=S)NC1=O
zone of inhibition at 250 µg/mL [1]: 24 mm
zone of inhibition at 100 µg/mL [2]: 22 mm
zone of inhibition at 100 µg/mL [3]: 24 mm
zone of inhibition at 100 µg/mL [4]: 21 mm
zone of inhibition at 100 µg/mL [5]: 22 mm
zone of inhibition at 50 µg/mL [6]: 21 mm
zone of inhibition at 50 µg/mL [7]: 24 mm
zone of inhibition at 50 µg/mL [8]: 19 mm
zone of inhibition at 50 µg/mL [9]: 18 mm
zone of inhibition at 25 µg/mL [10]: 19 mm
zone of inhibition at 25 µg/mL [11]: 20 mm
zone of inhibition at 25 µg/mL [12]: 18 mm
zone of inhibition at 25 µg/mL [13]: 16 mm
MFC [14]: > 1000 µg/mL
MIC [14]: 1000 µg/mL (≈ 3650 µM)
MFC [15]: 1000 µg/mL (≈ 3650 µM)
MIC [15]: 1000 µg/mL (≈ 3650 µM)
zone of inhibition at 25 µg/mL [16]: 10 mm
zone of inhibition at 25 µg/mL [17]: 12 mm
zone of inhibition at 25 µg/mL [18]: 10 mm
zone of inhibition at 25 µg/mL [19]: 12 mm
MBC [20]: 250 µg/mL (≈ 911 µM)
MIC [20]: 200 µg/mL (≈ 729 µM)
MBC [21]: 500 µg/mL (≈ 1820 µM)
MIC [21]: 250 µg/mL (≈ 911 µM)
MBC [22]: 250 µg/mL (≈ 911 µM)
MIC [22]: 250 µg/mL (≈ 911 µM)
MBC [23]: 250 µg/mL (≈ 911 µM)
MIC [23]: 250 µg/mL (≈ 911 µM)
MBC [24]: 500 µg/mL (≈ 1820 µM)
MIC [24]: 250 µg/mL (≈ 911 µM)
MFC [25]: 1000 µg/mL (≈ 3650 µM)
MIC [25]: 1000 µg/mL (≈ 3650 µM)
MFC [26]: 1000 µg/mL (≈ 3650 µM)
MIC [26]: 500 µg/mL (≈ 1820 µM)
zone of inhibition at 250 µg/mL [27]: 17 mm
zone of inhibition at 250 µg/mL [28]: 17 mm
zone of inhibition at 250 µg/mL [29]: 17 mm
zone of inhibition at 250 µg/mL [30]: 17 mm
zone of inhibition at 250 µg/mL [31]: 17 mm
zone of inhibition at 100 µg/mL [32]: 14 mm
zone of inhibition at 100 µg/mL [33]: 15 mm
zone of inhibition at 100 µg/mL [34]: 15 mm
zone of inhibition at 100 µg/mL [35]: 15 mm
zone of inhibition at 100 µg/mL [36]: 15 mm
zone of inhibition at 50 µg/mL [37]: 12 mm
zone of inhibition at 50 µg/mL [38]: 13 mm
zone of inhibition at 50 µg/mL [39]: 15 mm
zone of inhibition at 50 µg/mL [40]: 13 mm
zone of inhibition at 50 µg/mL [41]: 15 mm
zone of inhibition at 25 µg/mL [42]: 10 mm
zone of inhibition at 250 µg/mL [43]: 25 mm
zone of inhibition at 250 µg/mL [44]: 24 mm
zone of inhibition at 250 µg/mL [45]: 22 mm
